Source: patent US11046686B2, “Thiadiazole IRAK4 compounds” (Gilead Sciences, Inc., priority 2018, dated 2021)
pEC50, pIC50: −log10 of the molar value. Where two headings read alike, the source gives them in different places.

Experiments:
IRAK4 enzyme = IRAK4 enzyme (Homo sapiens (Human), UniProt Q9NWZ3); test: IRAK4 Biochemical Assay (TR-FRET, STK1 KinEASE)
In short: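 TR-FRET endpoint (KinEASE STK1): phosphopeptide detected with cryptate antibody and tracer after EDTA quench, ratio 665/615 nm, normalized to no-inhibitor wells as % inhibition. Reaction: 0.75 nM IRAK4, […] peptide, 500 μM ATP, pH 7.0 HEPES, 120 min room temperature, after 15 min compound preincubation with enzyme.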

TNFα = test: IRAK4 Monocyte TNFα Cell Based Assay; parameters: species or system human; conditions: human monocytes, second part of Table 2, compounds 33-343, unit inferred, read-out: EC50 MONO TNF HTRF
In short: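 TNFα release quantified by HTRF (cryptate/XL665 antibody pair, overnight at RT) after 1 h compound pre-incubation (0.1% DMSO) and 4 h LPS challenge at 50 pg/ml, 37 °C, 5,000 monocytes per well. Signal ratio normalised between unstimulated (0%) and stimulated (100%) controls.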

[1] = second part of Table 2, compounds 33-343, unit inferred, read-out: IC50 IRAK4-HTBS

Chain of IRAK4 enzyme (Q9NWZ3 whole entry): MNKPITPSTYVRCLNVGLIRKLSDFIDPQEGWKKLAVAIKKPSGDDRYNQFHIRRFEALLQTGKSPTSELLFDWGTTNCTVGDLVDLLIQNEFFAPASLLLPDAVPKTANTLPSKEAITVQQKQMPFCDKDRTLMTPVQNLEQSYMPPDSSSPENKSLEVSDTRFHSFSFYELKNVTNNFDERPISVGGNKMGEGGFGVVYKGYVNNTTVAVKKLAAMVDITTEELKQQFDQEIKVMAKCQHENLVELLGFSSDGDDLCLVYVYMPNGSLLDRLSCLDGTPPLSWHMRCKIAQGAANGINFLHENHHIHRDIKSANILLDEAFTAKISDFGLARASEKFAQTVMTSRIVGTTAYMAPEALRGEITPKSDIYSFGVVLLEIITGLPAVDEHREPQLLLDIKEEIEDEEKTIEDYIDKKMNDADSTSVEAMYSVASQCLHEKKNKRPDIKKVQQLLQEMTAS

Structure (SMILES): CC1(O)CCN(c2nnc(-c3cnc(-c4ccc5cc(C#N)cnn45)cc3NC3COC3)s2)CC1 [Example 187, 7-(5-(5-(4-hydroxy-4-methylpiperidin-1-yl)-1,3,4-thiadiazol-2-yl)-4-(oxetan-3-ylamino)pyridin-2-yl)pyrrolo[1,2-b]pyridazine-3-carbonitrile]
- pIC50 (IRAK4 enzyme): 9.18
- pEC50 (TNFα; Homo sapiens, Monocyte): 7.97

Structure (SMILES): CC1(O)CCN(c2nnc(-c3cnc(-c4ccc5cc(C#N)cnn45)cc3NC3CCOCC3)s2)CC1 [Example 188, 7-(5-(5-(4-hydroxy-4-methylpiperidin-1-yl)-1,3,4-thiadiazol-2-yl)-4-((tetrahydro-2H-pyran-4-yl)amino)pyridin-2-yl)pyrrolo[1,2-b]pyridazine-3-carbonitrile]
- pIC50 (IRAK4 enzyme): 8.97
- pEC50 (TNFα; Homo sapiens, Monocyte): 8.12

Structure (SMILES): CC(C)Nc1cc(-c2ccc3cc(C#N)cnn23)ncc1-c1nnc(N2CC[C@](C)(O)[C@@H](F)C2)s1 [Example 190, 7-(5-(5-((3S,4S)-3-fluoro-4-hydroxy-4-methylpiperidin-1-yl)-1,3,4-thiadiazol-2-yl)-4-(isopropylamino)pyridin-2-yl)pyrrolo[1,2-b]pyridazine-3-carbonitrile]
- pIC50 (IRAK4 enzyme): 8.86
- pEC50 (TNFα; Homo sapiens, Monocyte): 7.93

Structure (SMILES): CC(C)Nc1cc(-c2ccc3cc(C#N)cnn23)ncc1-c1nnc(N2CC[C@@](C)(O)[C@H](F)C2)s1 [Example 191, 7-(5-(5-((3R,4R)-3-fluoro-4-hydroxy-4-methylpiperidin-1-yl)-1,3,4-thiadiazol-2-yl)-4-(isopropylamino)pyridin-2-yl)pyrrolo[1,2-b]pyridazine-3-carbonitrile]
- pIC50 (IRAK4 enzyme): 8.94
- pEC50 (TNFα; Homo sapiens, Monocyte): 7.64

Structure (SMILES): CC(C)Nc1cc(-c2ccc3cc(C#N)cnn23)ncc1-c1nnc(N2CC[C@](C)(O)[C@H](F)C2)s1 [Example 192, 7-(5-(5-((3R,4S)-3-fluoro-4-hydroxy-4-methylpiperidin-1-yl)-1,3,4-thiadiazol-2-yl)-4-(isopropylamino)pyridin-2-yl)pyrrolo[1,2-b]pyridazine-3-carbonitrile]
- pIC50 (IRAK4 enzyme): 8.92
- pEC50 (TNFα; Homo sapiens, Monocyte): 7.61

Structure (SMILES): CC(=O)NC1[C@@H]2COC[C@H]1CN(c1nnc(-c3cnc(-c4ccc5cc(C#N)cnn45)cc3NC(C)C)s1)C2 (stereo partly drawn) [Example 193, N-((1R,5S)-7-(5-(6-(3-cyanopyrrolo[1,2-b]pyridazin-7-yl)-4-(isopropylamino)pyridin-3-yl)-1,3,4-thiadiazol-2-yl)-3-oxa-7-azabicyclo[3.3.1]nonan-9-yl)acetamide]
- pIC50 (IRAK4 enzyme): 9.17
- pEC50 (TNFα; Homo sapiens, Monocyte): 8.39

Structure (SMILES): CC(=O)NC1CCC(F)(c2nnc(-c3cnc(-c4ccc5cc(C#N)cnn45)cc3NC(C)C)s2)CC1 (centres unmarked) [Example 194, N-(4-(5-(6-(3-cyanopyrrolo[1,2-b]pyridazin-7-yl)-4-(isopropylamino)pyridin-3-yl)-1,3,4-thiadiazol-2-yl)-4-fluorocyclohexyl)acetamide]
- pIC50 (IRAK4 enzyme): 9.12
- pEC50 (TNFα; Homo sapiens, Monocyte): 7.19

Structure (SMILES): CC(=O)NC12C3C4C1C1C2C3C41c1nnc(-c2cnc(-c3ccc4cc(C#N)cnn34)cc2NC(C)C)s1 (centres unmarked) [Example 197, N-(4-(5-(6-(3-cyanopyrrolo[1,2-b]pyridazin-7-yl)-4-(isopropylamino)pyridin-3-yl)-1,3,4-thiadiazol-2-yl)cuban-1-yl)acetamide]
- pIC50 (IRAK4 enzyme): 8.80
- pEC50 (TNFα; Homo sapiens, Monocyte): 7.48

Structure (SMILES): C[C@]1(O)CCN(c2nnc(-c3cnc(-c4ccc5cc(C#N)cnn45)cc3NC3CCOCC3)s2)C[C@@H]1F [Example 204, 7-(5-(5-((3S,4S)-3-fluoro-4-hydroxy-4-methylpiperidin-1-yl)-1,3,4-thiadiazol-2-yl)-4-((tetrahydro-2H-pyran-4-yl)amino)pyridin-2-yl)pyrrolo[1,2-b]pyridazine-3-carbonitrile]
- pIC50 (IRAK4 enzyme): 9.46
- pEC50 (TNFα; Homo sapiens, Monocyte): 8.46

Structure (SMILES): C[C@]1(O)CCN(c2nnc(-c3cnc(-c4ccc5cc(C#N)cnn45)cc3NC3COC3)s2)C[C@@H]1F [Example 207, 7-(5-(5-((3S,4S)-3-fluoro-4-hydroxy-4-methylpiperidin-1-yl)-1,3,4-thiadiazol-2-yl)-4-(oxetan-3-ylamino)pyridin-2-yl)pyrrolo[1,2-b]pyridazine-3-carbonitrile]
- pIC50 (IRAK4 enzyme): 9.16
- pEC50 (TNFα; Homo sapiens, Monocyte): 8.10

Structure (SMILES): C[C@]1(O)CC[C@@H](c2nnc(-c3cnc(-c4ccc5cc(C#N)cnn45)cc3NC3COC3)s2)CC1 [Example 208, 7-(5-(5-((1s,4s)-4-hydroxy-4-methylcyclohexyl)-1,3,4-thiadiazol-2-yl)-4-(oxetan-3-ylamino)pyridin-2-yl)pyrrolo[1,2-b]pyridazine-3-carbonitrile]
- pIC50 (IRAK4 enzyme; [1]): 9.17
- pEC50 (TNFα): 7.87

Structure (SMILES): CC(C)Nc1cc(-c2ccc3cc(C#N)cnn23)ncc1-c1nncs1 [Example 211, 7-(4-(isopropylamino)-5-(1,3,4-thiadiazol-2-yl)pyridin-2-yl)pyrrolo[1,2-b]pyridazine-3-carbonitrile]
- pIC50 (IRAK4 enzyme; [1]): 9.01
- pEC50 (TNFα; Homo sapiens, Monocyte): 7.11

Structure (SMILES): CC(C)Nc1cc(-c2ccc3cc(C#N)cnn23)ncc1-c1nnc(CCN)s1 [Example 212, 7-(5-(5-(2-aminoethyl)-1,3,4-thiadiazol-2-yl)-4-(isopropylamino)pyridin-2-yl)pyrrolo[1,2-b]pyridazine-3-carbonitrile]
- pIC50 (IRAK4 enzyme; [1]): 9.00
- pEC50 (TNFα; Homo sapiens, Monocyte): 6.52

Structure (SMILES): CC(C)Nc1cc(-c2ccc3cc(C#N)cnn23)ncc1-c1nnc(C(=O)N2CCC[C@@H]2CO)s1 [Example 214, (R)-7-(5-(5-(2-(hydroxymethyl)pyrrolidine-1-carbonyl)-1,3,4-thiadiazol-2-yl)-4-(isopropylamino)pyridin-2-yl)pyrrolo[1,2-b]pyridazine-3-carbonitrile]
- pIC50 (IRAK4 enzyme): 9.34
- pEC50 (TNFα; Homo sapiens, Monocyte): 7.48

Structure (SMILES): CC(C)Nc1cc(-c2ccc3cc(C#N)cnn23)ncc1-c1nnc(C(=O)N2CC[C@H](CO)C2)s1 [Example 221, (S)-7-(5-(5-(3-(hydroxymethyl)pyrrolidine-1-carbonyl)-1,3,4-thiadiazol-2-yl)-4-(isopropylamino)pyridin-2-yl)pyrrolo[1,2-b]pyridazine-3-carbonitrile]
- pIC50 (IRAK4 enzyme): 9.04
- pEC50 (TNFα; Homo sapiens, Monocyte): 5.63

Structure (SMILES): CC(C)Nc1cc(-c2ccc3cc(C#N)cnn23)ncc1-c1nnc(C(=O)N2CC[C@@H](NC(=O)OC(C)(C)C)C2)s1 [Example 222, tert-butyl (R)-(1-(5-(6-(3-cyanopyrrolo[1,2-b]pyridazin-7-yl)-4-(isopropylamino)pyridin-3-yl)-1,3,4-thiadiazole-2-carbonyl)pyrrolidin-3-yl)carbamate]
- pIC50 (IRAK4 enzyme): 8.75
- pEC50 (TNFα; Homo sapiens, Monocyte): 5.75

Structure (SMILES): CC(C)Nc1cc(-c2ccc3cc(C#N)cnn23)ncc1-c1nnc(C(=O)N2CC[C@H](NC(=O)OC(C)(C)C)C2)s1 [Example 223, tert-butyl (S)-(1-(5-(6-(3-cyanopyrrolo[1,2-b]pyridazin-7-yl)-4-(isopropylamino)pyridin-3-yl)-1,3,4-thiadiazole-2-carbonyl)pyrrolidin-3-yl)carbamate]
- pIC50 (IRAK4 enzyme): 8.84
- pEC50 (TNFα; Homo sapiens, Monocyte): 5.87

Structure (SMILES): CC(=O)NC12CCC(c3nnc(-c4cnc(-c5ccc6cc(C#N)cnn56)cc4NC(C)C)s3)(CC1)C2 [Example 284, N-(4-(5-(6-(3-cyanopyrrolo[1,2-b]pyridazin-7-yl)-4-(isopropylamino)pyridin-3-yl)-1,3,4-thiadiazol-2-yl)bicyclo[2.2.1]heptan-1-yl)acetamide]
- pIC50 (IRAK4 enzyme): 9.16
- pEC50 (TNFα; Homo sapiens, Monocyte): 7.75

Structure (SMILES): CC(C)Nc1cc(-c2ccc3cc(C#N)cnn23)ncc1-c1nnc(N2CC(C)(O)C2)s1 [Example 286, 7-(5-(5-(3-hydroxy-3-methylazetidin-1-yl)-1,3,4-thiadiazol-2-yl)-4-(isopropylamino)pyridin-2-yl)pyrrolo[1,2-b]pyridazine-3-carbonitrile]
- pIC50 (IRAK4 enzyme): 9.20
- pEC50 (TNFα; Homo sapiens, Monocyte): 7.67
